One compound from ChEMBL document CHEMBL5247656, “Discovery of a Potent, Cooperative, and Selective SOS1 PROTAC ZZ151 with In Vivo Antitumor Efficacy in KRAS-Mutant Cancers” (J Med Chem, 2023) can be followed below.

The source made the active and inactive calls. No cut-off for these calls is given here. Some results are limits rather than exact numbers.

The target in assay [1] is T1, von Hippel-Lindau disease tumor suppressor/Son of sevenless homolog 1 (Homo sapiens) (UniProt Q07889+P40337). In words: PROTAC activity at VHL/SOS1 in human SW620 cells harboring KRAS G12V mutant assessed as induction of SOS1 degradation by measuring maximal efficacy at 1 to 2000 nM incubated for 24 hrs by Immunoblot analysis relative to control. Format: cell-based. Conditions: dose 1-2000 nM. On the technique in general: In western blotting, separated proteins are transferred to a membrane and probed.
T1 sequence (P40337 whole entry, looked up, one chain of several): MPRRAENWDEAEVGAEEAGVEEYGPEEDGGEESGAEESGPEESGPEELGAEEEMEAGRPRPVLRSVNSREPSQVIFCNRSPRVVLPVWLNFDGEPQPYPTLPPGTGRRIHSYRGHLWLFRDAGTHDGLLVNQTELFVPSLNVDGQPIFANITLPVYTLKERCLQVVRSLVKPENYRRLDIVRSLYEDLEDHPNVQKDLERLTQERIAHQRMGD

Assay [2] deals with T1, von Hippel-Lindau disease tumor suppressor/Son of sevenless homolog 1 (Homo sapiens). Description: PROTAC activity at VHL/SOS1 in human NCI-H358 cells harboring KRAS G12C mutant assessed as induction of SOS1 degradation at 1 uM preincubated with (R)-1-(4-(4-((1-(3-amino-5-(trifluoromethyl)phenyl)ethyl)amino)-7-methoxy-2-methylquinazolin-6-yl)piperidin-1-yl)ethanone for 4 hrs followed by compound treatment and measured after 24 hrs by Immunoblot analysis. Format: cell-based.

For assay [3] the target is unchanged. Description: PROTAC activity at VHL/SOS1 in human NCI-H358 cells assessed as induction of SOS1 protein degradation at 1.0 uM incubated for 24 hrs by Immunoblot analysis relative to control. Format: cell-based.
The target is the same in assay [4]. Description: PROTAC activity at VHL/SOS1 in human ASPC1 cells harboring KRAS G12D mutant assessed as induction of SOS1 degradation at 1 uM preincubated with (R)-1-(4-(4-((1-(3-amino-5-(trifluoromethyl)phenyl)ethyl)amino)-7-methoxy-2-methylquinazolin-6-yl)piperidin-1-yl)ethanone for 4 hrs followed by compound treatment and measured after 24 hrs by immunoblot analysis. Format: cell-based.

For assay [5] the target is unchanged. Description: PROTAC activity at VHL/SOS1 in human NCI-H358 cells harboring KRAS G12C mutant assessed as induction of SOS1 degradation at 1 uM incubated for 2 to 4 hrs by Immunoblot analysis. Conditions: time 2-4 hrs. Format: cell-based.
Assay [6] has the same target. Description: In vivo PROTAC activity at VHL/SOS1 in human SW620 cells harboring KRAS G12V mutant xenografted BALB/c nude mouse assessed as induction of SOS1 degradation in tumor at 10 to 20 mg/kg, ip administered once daily for 2 weeks by immunohistochemistry analysis. Conditions: SW-620, dose 10-20 mg/kg. Format: functional, organism-based. On the technique in general: Xenograft models place foreign cells or tissue in a host animal.

The target is the same in assay [7]. In words: PROTAC activity at VHL/SOS1 in human Calu-1 cells harboring KRAS G12C mutant assessed as induction of SOS1 degradation by measuring maximal efficacy at 1 to 2000 nM incubated for 24 hrs by Immunoblot analysis relative to control. Conditions: dose 1-2000 nM. Format: cell-based.
In assay [8] the target is T2, Son of sevenless homolog 1 (Homo sapiens, UniProt Q07889).
T2 sequence (Q07889 whole entry): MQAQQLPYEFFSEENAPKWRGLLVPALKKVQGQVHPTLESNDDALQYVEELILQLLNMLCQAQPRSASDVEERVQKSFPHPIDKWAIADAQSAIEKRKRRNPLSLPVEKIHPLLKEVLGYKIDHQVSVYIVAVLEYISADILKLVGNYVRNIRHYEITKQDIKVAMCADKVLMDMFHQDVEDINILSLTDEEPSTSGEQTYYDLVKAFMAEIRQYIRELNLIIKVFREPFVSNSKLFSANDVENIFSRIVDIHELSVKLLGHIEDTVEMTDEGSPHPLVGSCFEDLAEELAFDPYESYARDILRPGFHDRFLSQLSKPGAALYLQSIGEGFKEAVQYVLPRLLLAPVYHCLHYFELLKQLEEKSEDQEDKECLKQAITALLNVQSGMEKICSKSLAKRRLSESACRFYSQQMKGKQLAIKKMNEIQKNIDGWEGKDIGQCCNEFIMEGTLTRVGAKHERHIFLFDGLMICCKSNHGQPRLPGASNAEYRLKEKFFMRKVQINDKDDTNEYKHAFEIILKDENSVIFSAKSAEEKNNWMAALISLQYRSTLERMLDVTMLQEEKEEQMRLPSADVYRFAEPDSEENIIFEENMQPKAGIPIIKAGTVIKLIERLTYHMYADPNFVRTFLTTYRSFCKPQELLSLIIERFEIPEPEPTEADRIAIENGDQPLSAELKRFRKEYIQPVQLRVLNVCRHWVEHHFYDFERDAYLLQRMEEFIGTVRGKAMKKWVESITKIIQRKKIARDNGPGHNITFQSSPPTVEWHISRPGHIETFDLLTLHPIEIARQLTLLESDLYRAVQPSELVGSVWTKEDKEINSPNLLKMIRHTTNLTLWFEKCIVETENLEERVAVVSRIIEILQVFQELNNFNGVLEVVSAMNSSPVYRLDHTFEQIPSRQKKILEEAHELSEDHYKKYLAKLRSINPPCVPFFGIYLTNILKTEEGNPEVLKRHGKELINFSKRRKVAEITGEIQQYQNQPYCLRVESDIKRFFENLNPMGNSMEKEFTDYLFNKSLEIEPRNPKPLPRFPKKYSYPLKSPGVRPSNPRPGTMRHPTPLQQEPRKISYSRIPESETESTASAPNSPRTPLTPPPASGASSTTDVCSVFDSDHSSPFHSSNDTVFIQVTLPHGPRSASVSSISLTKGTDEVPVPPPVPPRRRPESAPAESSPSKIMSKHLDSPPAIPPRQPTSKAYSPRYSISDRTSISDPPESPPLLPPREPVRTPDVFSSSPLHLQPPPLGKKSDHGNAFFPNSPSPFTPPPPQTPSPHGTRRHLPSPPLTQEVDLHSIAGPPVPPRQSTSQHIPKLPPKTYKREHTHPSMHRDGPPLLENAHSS
In words: Binding affinity to GST-tagged human SOS1 (564 to 1049 residues) expressed in Escherichia coli BL21 (DE3) cells assessed as ternary complex formation by measuring dissociation constant incubated for 15 mins in the presence of 6His tagged human VCB by fluorescence polarization-based displacement assay.

For assay [9], the target named is T1, von Hippel-Lindau disease tumor suppressor/Son of sevenless homolog 1 (Homo sapiens). Description: In vivo PROTAC activity at VHL/SOS1 in human SW620 cells harboring KRAS G12V mutant xenografted BALB/c nude mouse assessed as decrease in phosphorylated ERK expression in tumor at 10 to 20 mg/kg, ip administered once daily for 2 weeks by immunohistochemistry analysis. Format: functional, organism-based. Conditions: SW-620, dose 10-20 mg/kg.

Assay [10] shares this target. Description: PROTAC activity at VHL/SOS1 in human HPAF-II cells harboring KRAS G12D mutant assessed as induction of SOS1 degradation by measuring maximal efficacy at 1 to 2000 nM incubated for 24 hrs by Immunoblot analysis relative to control. Format: cell-based. The following applies: dose 1-2000 nM.
For assay [11] the target is unchanged. Description: PROTAC activity at VHL/SOS1 in human MIA PaCa-2 cells harboring KRAS G12C mutant assessed as induction of SOS1 degradation by measuring maximal efficacy at 1 to 2000 nM incubated for 24 hrs by Immunoblot analysis relative to control. Format: cell-based. Conditions: dose 1-2000 nM.
Assay [12] has the same target. Description: PROTAC activity at VHL/SOS1 in human A549 cells harboring KRAS G12S mutant assessed as induction of SOS1 degradation by measuring maximal efficacy at 1 to 2000 nM incubated for 24 hrs by Immunoblot analysis relative to control. Format: cell-based. The following applies: dose 1-2000 nM.
Assay [13] shares this target. Description: PROTAC activity at VHL/SOS1 in human NCI-H441 cells harboring KRAS G12V mutant assessed as induction of SOS1 degradation by measuring maximal efficacy at 1 to 2000 nM incubated for 24 hrs by Immunoblot analysis relative to control. Format: cell-based. The following applies: dose 1-2000 nM.

Take `COc1cc2nc(C)nc(N[C@H](C)c3cc(N)cc(C(F)(F)F)c3)c2cc1C1CCN(C(=O)CCCCCC(=O)N[C@H](C(=O)N2C[C@H](O)C[C@H]2C(=O)N[C@@H](C)c2ccc(-c3scnc3C)cc2)C(C)(C)C)CC1`: the Emax in [1], in assay [7], in assay [10], in [11], in assay [12] and in assay [13] was more than 95% in each case. Moreover, the outcome in assay [2] and in [4] was inactive. The Activity in assay [3] was found to be 98.2%. Moreover, the outcome in [5], in [6] and in assay [9] was Active. For the same compound, the Kd – broadly, the constant that tells how readily two partners part at equilibrium – in [8] was determined as 8.13 nM.
